Measured values from article PMC8429728, “TNK1 is a ubiquitin-binding and 14-3-3-regulated kinase that can be targeted to block tumor growth” (Nature Communications, 2021).
Where two headings read alike, the source gives them in different places.

Columns and labels:
Assay in all cases: biochemical
Parameters in all cases: Reaction Biology 371-kinase panel at Km ATP, per cent enzyme activity relative to DMSO, single dose in duplicate
Settings in all cases: duplicate measurements, Km ATP
[1] = target: T1, JNK2 (Homo sapiens, UniProt P45984)
T1 construct: gene MAPK9
Method in brief: (§1)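 In vitro selectivity panel: 371 kinases, inhibitor at 300 nM; % activity vs DMSO; IC50 by variable-slope sigmoidal fit, bottom = 0.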

[2] = target: PBK/TOPK (Homo sapiens, UniProt Q96KB5)
Method in brief: as §1

[3] = target: p70S6K/RPS6KB1 (Homo sapiens, UniProt P23443)
Method in brief: as §1

[4] = target: YSK4/MAP3K19 (Homo sapiens, UniProt Q56UN5)
Method in brief: as §1

[5] = target: CDK4/cyclin D3 (Homo sapiens, UniProt P11802)
Method in brief: as §1

[6] = target: ERK5/MAPK7 (Homo sapiens, UniProt Q13164)
Method in brief: as §1

[7] = target: MARK1 (Homo sapiens, UniProt Q9P0L2)
Method in brief: as §1

[8] = target: T2, CHK2 (Homo sapiens, UniProt O96017)
T2 construct: gene CHEK2
T2 sequence (O96017 whole entry): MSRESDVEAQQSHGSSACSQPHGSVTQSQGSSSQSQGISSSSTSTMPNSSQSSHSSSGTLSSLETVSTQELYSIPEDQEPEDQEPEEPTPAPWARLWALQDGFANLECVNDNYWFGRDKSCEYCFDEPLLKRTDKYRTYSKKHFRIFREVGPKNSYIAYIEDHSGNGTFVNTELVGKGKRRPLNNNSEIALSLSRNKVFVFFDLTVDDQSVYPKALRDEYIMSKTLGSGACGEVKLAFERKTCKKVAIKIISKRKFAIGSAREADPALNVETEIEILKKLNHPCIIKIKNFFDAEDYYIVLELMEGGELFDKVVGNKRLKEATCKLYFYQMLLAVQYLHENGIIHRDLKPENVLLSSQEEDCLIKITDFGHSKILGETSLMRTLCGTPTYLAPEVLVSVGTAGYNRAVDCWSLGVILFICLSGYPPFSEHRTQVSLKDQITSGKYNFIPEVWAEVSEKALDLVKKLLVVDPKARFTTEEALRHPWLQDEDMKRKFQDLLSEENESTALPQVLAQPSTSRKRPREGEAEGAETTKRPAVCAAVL
Method in brief: as §1

[9] = target: PAK6 (Homo sapiens, UniProt Q9NQU5)
Method in brief: as §1

[10] = target: CLK1 (Homo sapiens, UniProt P49759)
CLK1, sequence (P49759 whole entry): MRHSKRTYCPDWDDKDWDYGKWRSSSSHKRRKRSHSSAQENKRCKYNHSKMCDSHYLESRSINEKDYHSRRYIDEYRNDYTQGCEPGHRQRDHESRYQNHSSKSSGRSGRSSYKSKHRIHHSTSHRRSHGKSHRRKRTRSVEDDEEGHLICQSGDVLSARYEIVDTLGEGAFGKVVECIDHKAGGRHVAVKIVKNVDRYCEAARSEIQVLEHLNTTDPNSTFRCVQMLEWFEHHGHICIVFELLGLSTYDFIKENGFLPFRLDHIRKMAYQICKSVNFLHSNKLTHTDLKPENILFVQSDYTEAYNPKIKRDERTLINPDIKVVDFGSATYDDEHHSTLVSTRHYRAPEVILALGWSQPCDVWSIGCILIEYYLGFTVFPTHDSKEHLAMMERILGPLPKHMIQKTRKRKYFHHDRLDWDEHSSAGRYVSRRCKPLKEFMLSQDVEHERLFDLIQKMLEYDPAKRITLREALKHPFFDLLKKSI
Method in brief: as §1

[11] = target: T3, TAK1 (Homo sapiens, UniProt O43318)
T3 construct: gene MAP3K7
Method in brief: as §1

[12] = target: PKD2/PRKD2 (Homo sapiens, UniProt Q9BZL6)
PKD2/PRKD2, sequence (Q9BZL6 whole entry): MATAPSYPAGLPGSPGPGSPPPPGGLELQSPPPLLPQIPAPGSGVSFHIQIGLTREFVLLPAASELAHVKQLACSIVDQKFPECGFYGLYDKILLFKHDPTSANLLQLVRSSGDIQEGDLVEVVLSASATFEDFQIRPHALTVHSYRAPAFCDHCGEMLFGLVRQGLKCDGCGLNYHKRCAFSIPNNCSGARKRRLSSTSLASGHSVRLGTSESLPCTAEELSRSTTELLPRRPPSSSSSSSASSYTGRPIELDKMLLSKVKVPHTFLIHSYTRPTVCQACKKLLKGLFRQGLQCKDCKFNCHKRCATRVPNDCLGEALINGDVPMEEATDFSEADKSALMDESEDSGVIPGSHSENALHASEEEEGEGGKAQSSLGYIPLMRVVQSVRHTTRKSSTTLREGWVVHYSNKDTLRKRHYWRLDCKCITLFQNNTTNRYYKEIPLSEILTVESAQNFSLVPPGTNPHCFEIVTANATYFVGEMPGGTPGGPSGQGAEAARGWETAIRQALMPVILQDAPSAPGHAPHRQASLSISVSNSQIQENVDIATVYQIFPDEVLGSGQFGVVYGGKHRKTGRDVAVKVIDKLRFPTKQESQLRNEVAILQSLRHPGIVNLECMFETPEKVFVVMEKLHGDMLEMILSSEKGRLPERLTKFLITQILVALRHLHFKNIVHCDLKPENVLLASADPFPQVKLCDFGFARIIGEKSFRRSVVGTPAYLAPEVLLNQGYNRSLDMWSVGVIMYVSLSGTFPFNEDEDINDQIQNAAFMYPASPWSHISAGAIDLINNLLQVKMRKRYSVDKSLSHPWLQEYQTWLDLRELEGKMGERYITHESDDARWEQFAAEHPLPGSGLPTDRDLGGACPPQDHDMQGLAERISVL
Method in brief: as §1

[13] = target: T4, RIPK5 (Homo sapiens, UniProt Q6XUX3)
T4 construct: gene DSTYK
T4 sequence (Q6XUX3 whole entry): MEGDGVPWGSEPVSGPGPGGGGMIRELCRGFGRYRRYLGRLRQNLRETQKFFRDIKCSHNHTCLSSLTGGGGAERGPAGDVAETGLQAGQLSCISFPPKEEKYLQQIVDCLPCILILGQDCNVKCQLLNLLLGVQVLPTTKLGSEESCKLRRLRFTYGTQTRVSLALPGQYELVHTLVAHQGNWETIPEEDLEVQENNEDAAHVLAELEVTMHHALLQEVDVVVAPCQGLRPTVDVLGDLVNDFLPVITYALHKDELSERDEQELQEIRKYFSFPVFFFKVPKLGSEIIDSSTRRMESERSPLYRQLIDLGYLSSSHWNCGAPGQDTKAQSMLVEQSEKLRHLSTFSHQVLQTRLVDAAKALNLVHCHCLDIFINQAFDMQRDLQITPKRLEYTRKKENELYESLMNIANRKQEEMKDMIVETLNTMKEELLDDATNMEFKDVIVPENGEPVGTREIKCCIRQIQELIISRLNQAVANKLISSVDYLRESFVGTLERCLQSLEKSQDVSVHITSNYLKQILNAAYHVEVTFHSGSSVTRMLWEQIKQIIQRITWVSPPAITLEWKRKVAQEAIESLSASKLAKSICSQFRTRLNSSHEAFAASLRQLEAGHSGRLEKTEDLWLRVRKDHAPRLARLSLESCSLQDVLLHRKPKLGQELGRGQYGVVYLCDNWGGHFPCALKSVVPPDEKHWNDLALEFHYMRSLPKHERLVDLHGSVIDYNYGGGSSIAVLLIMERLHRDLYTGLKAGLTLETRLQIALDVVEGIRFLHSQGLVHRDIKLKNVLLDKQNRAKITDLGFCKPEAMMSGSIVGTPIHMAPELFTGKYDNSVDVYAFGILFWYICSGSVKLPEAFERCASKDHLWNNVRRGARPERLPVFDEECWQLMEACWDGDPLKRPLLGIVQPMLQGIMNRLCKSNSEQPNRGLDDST
Method in brief: as §1

[14] = target: DDR1 (Homo sapiens, UniProt Q08345)
Method in brief: as §1

[15] = target: T5, PYK2 (Homo sapiens, UniProt Q14289)
T5 construct: gene PTK2B
T5 sequence (Q14289 whole entry): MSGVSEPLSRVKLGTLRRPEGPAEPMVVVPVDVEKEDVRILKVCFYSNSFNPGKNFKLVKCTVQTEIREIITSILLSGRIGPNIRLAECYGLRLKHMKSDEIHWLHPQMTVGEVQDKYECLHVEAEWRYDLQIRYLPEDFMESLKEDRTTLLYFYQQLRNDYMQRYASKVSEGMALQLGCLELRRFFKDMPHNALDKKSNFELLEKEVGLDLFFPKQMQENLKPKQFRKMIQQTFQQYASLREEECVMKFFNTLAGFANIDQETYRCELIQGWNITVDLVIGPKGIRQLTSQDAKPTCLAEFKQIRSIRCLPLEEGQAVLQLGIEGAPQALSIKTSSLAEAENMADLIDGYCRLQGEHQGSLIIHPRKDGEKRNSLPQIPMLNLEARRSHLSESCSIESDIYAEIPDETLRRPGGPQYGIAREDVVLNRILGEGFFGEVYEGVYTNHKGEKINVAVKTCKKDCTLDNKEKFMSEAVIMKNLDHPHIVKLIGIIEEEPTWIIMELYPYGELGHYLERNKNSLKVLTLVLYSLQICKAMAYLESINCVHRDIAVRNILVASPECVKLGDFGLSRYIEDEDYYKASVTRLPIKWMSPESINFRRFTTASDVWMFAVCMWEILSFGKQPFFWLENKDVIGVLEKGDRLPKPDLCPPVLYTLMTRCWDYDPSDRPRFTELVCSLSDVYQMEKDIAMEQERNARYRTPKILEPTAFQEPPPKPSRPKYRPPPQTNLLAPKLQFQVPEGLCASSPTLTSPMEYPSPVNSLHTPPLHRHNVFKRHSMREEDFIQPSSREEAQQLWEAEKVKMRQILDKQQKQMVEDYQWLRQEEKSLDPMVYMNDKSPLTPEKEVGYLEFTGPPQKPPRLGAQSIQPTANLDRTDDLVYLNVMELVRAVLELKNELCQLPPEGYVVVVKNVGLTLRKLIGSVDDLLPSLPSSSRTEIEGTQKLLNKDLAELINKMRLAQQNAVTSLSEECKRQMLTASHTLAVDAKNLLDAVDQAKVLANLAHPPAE
Method in brief: as §1

[16] = target: YES/YES1 (Homo sapiens, UniProt P07947)
YES/YES1, sequence (P07947 whole entry): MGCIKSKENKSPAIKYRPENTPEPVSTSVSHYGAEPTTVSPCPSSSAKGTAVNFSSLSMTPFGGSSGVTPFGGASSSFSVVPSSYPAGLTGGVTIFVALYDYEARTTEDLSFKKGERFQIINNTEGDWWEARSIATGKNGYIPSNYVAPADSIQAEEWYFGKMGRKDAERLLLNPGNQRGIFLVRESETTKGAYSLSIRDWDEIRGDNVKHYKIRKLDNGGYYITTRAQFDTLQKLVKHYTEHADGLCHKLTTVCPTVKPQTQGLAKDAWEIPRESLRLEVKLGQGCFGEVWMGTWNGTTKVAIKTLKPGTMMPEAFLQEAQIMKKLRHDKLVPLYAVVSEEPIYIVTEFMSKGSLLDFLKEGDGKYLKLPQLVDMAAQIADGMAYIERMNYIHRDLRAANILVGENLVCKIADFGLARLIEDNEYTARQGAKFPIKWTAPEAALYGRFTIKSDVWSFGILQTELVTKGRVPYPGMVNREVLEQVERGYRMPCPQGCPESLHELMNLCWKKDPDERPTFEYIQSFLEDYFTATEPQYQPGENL
Method in brief: as §1

[17] = target: OSR1/OXSR1 (Homo sapiens, UniProt O95747)
Method in brief: as §1

[18] = target: p70S6Kb/RPS6KB2 (Homo sapiens, UniProt Q9UBS0)
Method in brief: as §1

[19] = target: CAMK4 (Homo sapiens, UniProt Q16566)
CAMK4, sequence (Q16566 whole entry): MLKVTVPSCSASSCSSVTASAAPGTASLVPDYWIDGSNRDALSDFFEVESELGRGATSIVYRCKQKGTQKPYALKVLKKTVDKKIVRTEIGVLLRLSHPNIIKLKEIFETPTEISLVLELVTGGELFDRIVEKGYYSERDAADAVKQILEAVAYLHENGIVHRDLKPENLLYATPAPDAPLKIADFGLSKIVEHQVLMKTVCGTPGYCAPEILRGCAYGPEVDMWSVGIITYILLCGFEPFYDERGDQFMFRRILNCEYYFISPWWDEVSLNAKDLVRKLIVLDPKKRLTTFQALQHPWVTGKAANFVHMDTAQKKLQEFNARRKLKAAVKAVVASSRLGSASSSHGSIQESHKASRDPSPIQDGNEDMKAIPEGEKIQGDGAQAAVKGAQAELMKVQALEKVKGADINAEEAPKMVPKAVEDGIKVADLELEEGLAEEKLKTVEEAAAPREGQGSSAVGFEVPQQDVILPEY
Method in brief: as §1

[20] = target: MLCK/MYLK (Homo sapiens, UniProt Q15746)
Method in brief: as §1

[21] = read-out: % Enzyme Activity (relative to DMSO controls) / TP-0005801 (0.3µM) / Data 1
[22] = read-out: % Enzyme Activity (relative to DMSO controls) / TP-0005801 (0.3µM) / Data 2

`COc1cc(N2CCN(C)CC2)c(C)cc1Nc1ncc(Br)c(Nc2cccnc2N(C)C)n1` [TP-5801] gave a remaining activity at 0.3 µM [1, 21] of 97%, a remaining activity at 0.3 µM [1, 22] of 96.3% and a remaining activity at 0.3 µM [2, 21] of 107%. For the same compound, the remaining activity at 0.3 µM [2, 22] was 98.9%, the remaining activity at 0.3 µM [3, 21] was 105% and the remaining activity at 0.3 µM [3, 22] was 102%. It also gave a remaining activity at 0.3 µM [4, 21] of 93.8%, a remaining activity at 0.3 µM [4, 22] of 92.8% and a remaining activity at 0.3 µM [5, 21] of 91.7%. For the same compound, the remaining activity at 0.3 µM [5, 22] was 90.8%, the remaining activity at 0.3 µM [6, 21] was 91.6% and the remaining activity at 0.3 µM [6, 22] was 90.9%. It also gave a remaining activity at 0.3 µM [7, 21] of 101%, a remaining activity at 0.3 µM [7, 22] of 99.2% and a remaining activity at 0.3 µM [8, 21] of 103%. The remaining activity at 0.3 µM [8, 22] was 102%, the remaining activity at 0.3 µM [9, 21] was 107% and the remaining activity at 0.3 µM [9, 22] was 105%. The remaining activity at 0.3 µM [10, 21] was 11.9%, the remaining activity at 0.3 µM [10, 22] was 11.7% and the remaining activity at 0.3 µM [11, 21] was 103%. For the same compound, the remaining activity at 0.3 µM [11, 22] was 102%, the remaining activity at 0.3 µM [12, 21] was 66.5% and the remaining activity at 0.3 µM [12, 22] was 64.3%. The remaining activity at 0.3 µM [13, 21] was 108%, the remaining activity at 0.3 µM [13, 22] was 101% and the remaining activity at 0.3 µM [14, 21] was 74.4%. The remaining activity at 0.3 µM [14, 22] was 74.1%, the remaining activity at 0.3 µM [15, 21] was 23.7% and the remaining activity at 0.3 µM [15, 22] was 23.5%. The remaining activity at 0.3 µM [16, 21] was 87.4%, the remaining activity at 0.3 µM [16, 22] was 85.4% and the remaining activity at 0.3 µM [17, 21] was 110%. The remaining activity at 0.3 µM [17, 22] was 104%, the remaining activity at 0.3 µM [18, 21] was 95.7% and the remaining activity at 0.3 µM [18, 22] was 90.1%. For the same compound, the remaining activity at 0.3 µM [19, 21] was 96.9%, the remaining activity at 0.3 µM [19, 22] was 94.7% and the remaining activity at 0.3 µM [20, 21] was 93.8%. The remaining activity at 0.3 µM [20, 22] was 90.8%.
